# Assay results as given in patent publication US10183079B2, “Hydrogel microspheres containing peptide ligands for growth factor regulation in blood products” (Wisconsin Alumni Research Foundation, priority 2016, dated 2019).
# Square brackets hold non-standard residues; d marks the D form. Primed or numbered codes have the meaning given here. Ends that are not written are not given here. PEG27′ = polyethylene glycol 27 spacer; βAla = NCCC(=O)O
# Tests used:
# iPSC-EC = iPSC-EC proliferation, xCELLigence cell index; assay type: cell-based; settings: 5 ng/mL VEGF, 48-hour culture; for iPSC-EC proliferation (cell index): soluble peptide
# Method: Soluble branched VBP containing a PEG-27 spacer (C{βA}K({βA}{PEG-27}KSAPYEWNFDI{Ld}{Yd}{Ad}{Fd}E)2 (SEQ ID NO:10) was synthesized as described above using fmoc solid-phase peptide synthesis, wherein each amino acid after the branch point was added at 8 molar excess relative to the resin free amines with a corresponding 8 molar excess of DIPEA and 4 molar excess of HBTU during the coupling reaction. Peptide purity was assessed using reverse-phase high performance liquid chromatograph, and peptide identity was assessed using matrix-assisted laser desorption time-of-flight spectrometry. Peptide content was assessed using Ellman's assay for free thiol, and both soluble branched VBP2, PEG-27 and VBP2,a were dissolved in PBS for use in cell culture assay. The influence of soluble branched peptides on iPSC-EC proliferation was established using ACEA xCELLigence RTCA-DP. iPSC-EC used in this Example were cultured in iCell-EC Growth Medium (as described in Example 1 above), were passaged using TrypLE, and were used between passage 4-8 for experiments. E-plates (containing gold electrodes on the bottom of each well) were first coated with Fibronectin (Corning) and were seeded with iPSC-EC at a density of 6000 cells/cm^2. Seeded E-plates were cultured on RTCA-DP overnight in Growth Medium, and on the day of experiments, medium was removed and replaced with medium containing 0.1 vol % supplement (CDI) in VascuLife (LifeLine) and L-glutamine (LifeLine) and containing 5 ng/mL VEGF (LifeLine) and the specified concentrations of either VBP2, PEG-27 or VBP2,a. iPSC-EC proliferation was assessed by monitoring the cell index (indicating cell coverage over the gold-coated wells) over a 48-hour period in culture, and at the end of the 48-hour culture, cell indices were averaged for two replicate wells per condition. Statistical analysis at the end of the experiment was performed using two-way analysis of variance (ANOVA) and Tukey's post-hoc test for α=0.05.
# [1] = test system: choroidal neovascularization; assay: Mouse choroidal neovascularization model; assay type: in vivo; settings: 2 μL/eye
# Method: Microspheres (generated via sonication) were sanitized either by washing in 70% ethanol or by exposing to UV for 30 minutes prior to injection. Microspheres (F-VBP, F-Scramble, N-VBP, and N-Scramble) were suspended at 2 mg/mL in sterile PBS on the day of experiments. Soluble VBP or Scramble peptide (purchased from GenScript) were dissolved, sterile filtered through 0.2 μm filter, and diluted to 20 μg/mL in sterile PBS before experiments. SU4312 (Sigma) was dissolved in DMSO at 5 μg/mL, and Eylea (Regeneron Pharmaceuticals) was dissolved in PBS at 40 μg/mL and sterile filtered through 0.2 μm filter.
# The mouse choroidal neovascularization model was generated as described in FIG. 8A. Briefly, C57BL/6J mice (Jackson Laboratories; 6-weeks old female) eyes were dilated using a drop of tropicamide (1%), and mice were anesthetized with ketamine and xylazine. Mice were subjected to photocoagulation (75 μm spot size, 0.1 s duration, 120 mW) at the 3-, 9-, and 12-o'clock positions of the posterior pole of the eye using an OcuLight GL diode laser (Iridex) with a glass coverslip over the eye. Microspheres were injected into each eye (2 μL/eye) using a pump microinjection apparatus (Harvard Apparatus) or Hamilton syringe. […] The area of ICAM-2+ staining (defined as mean CNV area) at each position (3-, 9-, and 12-o'clock) was quantified using Fiji and automated image thresholding. […]
compound,measurement,setting,value
"C{βA}K({βA}{PEG-27}KSAPYEWNFDI{Ld}{Yd}{Ad}{Fd}E)2 (C[βAla]K[βAla][PEG27′]KSAPYEWNFDI[dL][dY][dA][dF]E[βAla][PEG27′]KSAPYEWNFDI[dL][dY][dA][dF]E; not fully specified (C-terminus); numbers in words are those of the source; also: branched dimer: two arms on K3) [VBP2, PEG27]",iPSC-EC proliferation (cell index),iPSC-EC,inhibited iPSC-EC proliferation in culture with VEGF
"Eylea: commercial anti-angiogenesis compound (Regeneron Pharmaceuticals), soluble VEGF inhibitor protein","mean CNV area, Eylea","[1]; 40 μg/mL, control IgG",inhibit angiogenesis in this model
"(E{Fd}{Ad}{Yd}{Ld}IDFNWEYPASK)2KC (E[dF][dA][dY][dL]IDFNWEYPASKE[dF][dA][dY][dL]IDFNWEYPASKKC-NH2; also: branched dimer: two arms on K33) [VBP2,a]",iPSC-EC proliferation (cell index) at 5 μM,iPSC-EC; 5 μM soluble peptide,"inhibited proliferation at a much greater extent than the VBP2, PEG27"
same,iPSC-EC proliferation (cell index),iPSC-EC,inhibited iPSC-EC proliferation in culture with VEGF
Cc1cc(C)c(/C=C2\C(=O)Nc3ccccc32)[nH]1 [SU5416],"mean CNV area, small-molecule inhibitor","[1]; 5 μg/mL in DMSO, vehicle control",inhibit angiogenesis in this model
